{"source": "patent US20250277066A1", "about": "“Substituted Pyridine-2,6-Bis(Phenylenephenolate) Complexes with Enhanced Solubility that are Useful as Catalyst Components for Olefin Polymerization” (ExxonMobil Chemical Patents Inc., priority 2022, published 2025)", "test": "Rapid GPC of polymers (Mn, Mw, Mz, PDI)", "type": "physicochemical", "design": "Mn / Mw / Mz: unit not given here", "method": "For analytical testing, polymer sample solutions were prepared by dissolving polymer in 1,2,4-trichlorobenzene (TCB, 99+% purity from Sigma-Aldrich) containing 2,6-di-tert-butyl-4-methylphenol (BHT, 99% from Aldrich) at 165° C. in a shaker oven for approximately 3 hours. The typical concentration of polymer in solution was between 0.1 to 0.9 mg/mL with a BHT concentration of 1.25 mg BHT/mL of TCB. Samples were cooled to 135° C. for testing.\nHigh temperature size exclusion chromatography was performed using an automated “Rapid GPC” system as described in U.S. Pat. Nos. 6,491,816; 6,491,823; 6,475,391; 6,461,515; 6,436,292; 6,406,632; 6,175,409; 6,454,947; 6,260,407; and 6,294,388; each of which is incorporated herein by reference. Molecular weights (weight average molecular weight (Mw), number average molecular weight (Mn) and z average molecular weight (Mz)) and molecular weight distribution (MWD=Mw/Mn), which is also sometimes referred to as the polydispersity (PDI) of the polymer, were measured by Gel Permeation Chromatography using a Symyx Technology GPC equipped with evaporative light scattering detector (ELSD) and calibrated using polystyrene standards (Polymer Laboratories: Polystyrene Calibration Kit S-M-10: Mp (peak Mw) between 5,000 and 3,390,000). Alternatively, samples were measured by Gel Permeation Chromatography using a Symyx Technology GPC equipped with dual wavelength infrared detector and calibrated using polystyrene standards (Polymer Laboratories: Polystyrene Calibration Kit S-M-10: Mp (peak Mw) between 580 and 3,039,000). […] No column spreading corrections were employed. Numerical analyses were performed using Epoch® software available from Symyx Technologies or Automation Studio software available from Freeslate. The molecular weights obtained are relative to linear polystyrene standards. Molecular weight data is reported in Table 2 under the headings Mn, Mw, Mz and PDI as defined above.", "key": {"[1]": {"details": "polypropylene made with activator A at 70° C."}, "[2]": {"details": "polypropylene made with activator A at 100° C."}, "[3]": {"details": "polypropylene made with activator B at 70° C."}, "[4]": {"details": "polypropylene made with activator B at 100° C."}, "[5]": {"details": "polymer made with activator A, T 70 ° C."}, "[6]": {"details": "polymer made with activator A, T 100 ° C."}, "[7]": {"details": "polymer made with activator B, T 70 ° C."}, "[8]": {"details": "polymer made with activator B, T 100 ° C."}}, "note": "Values joined by “and” are separate entries in the source; they are usually repeats but may differ in a detail not shown here. Equal values may be shown once."}
{"smiles": "CC(C)(C)c1cc2c(c(C34CC5CC(CC(C5)C3)C4)c1)[O][Zr-]1([CH3])([CH3])[O]c3c(cc(C(C)(C)C)cc3C34CC5CC(CC(C5)C3)C4)-c3ccccc3-c3cccc([n+]31)-c1ccccc1-2", "note": "[Complex 2]", "values": [{"measurement": "Mn", "setting": "[1]", "result": "51,771 and 73,251 and 79,137"}, {"measurement": "Mw", "setting": "[1]", "result": "409,655 and 422,884 and 427,915"}, {"measurement": "Mz", "setting": "[1]", "result": "1,643,708 and 1,794,768 and 1,704,507"}, {"measurement": "PDI", "setting": "polypropylene made with activator A at 70° C., Mw/Mn", "result": "7.91 and 5.77 and 5.41"}, {"measurement": "Mw", "setting": "[2]", "result": "157,755 and 118,735 and 149,968"}, {"measurement": "Mz", "setting": "[2]", "result": "608,816 and 547,511 and 649,731"}, {"measurement": "PDI", "setting": "polypropylene made with activator A at 100° C., Mw/Mn", "result": "3.82 and 5.79 and 4.78"}, {"measurement": "Mn", "setting": "[3]", "result": "142,243 and 146,842 and 153,727"}, {"measurement": "Mw", "setting": "[3]", "result": "528,329 and 583,343 and 515,347"}, {"measurement": "Mz", "setting": "[3]", "result": "1,786,121 and 2,112,818 and 1,774,716"}, {"measurement": "PDI", "setting": "polypropylene made with activator B at 70° C., Mw/Mn", "result": "3.71 and 3.97 and 3.35"}, {"measurement": "Mn", "setting": "[4]", "result": "63,491 and 54,833 and 47,288"}, {"measurement": "Mw", "setting": "[4]", "result": "180,083 and 161,679 and 169,722"}, {"measurement": "Mz", "setting": "[4]", "result": "621,548 and 531,840 and 733,298"}, {"measurement": "PDI", "setting": "polypropylene made with activator B at 100° C., Mw/Mn", "result": "2.84 and 2.95 and 3.59"}]}
{"smiles": "Cc1cc2[n+]3c(c1)-c1ccccc1-c1cc(C(C)(C)C)cc(C45CC6CC(CC(C6)C4)C5)c1[O][Zr-]3([CH3])([CH3])[O]c1c(cc(C(C)(C)C)cc1C13CC4CC(CC(C4)C1)C3)-c1ccccc1-2", "note": "[Complex 3]", "values": [{"measurement": "Mn", "setting": "[5]", "result": "151,894 and 189,341"}, {"measurement": "Mw", "setting": "[5]", "result": "555,461 and 618,660"}, {"measurement": "Mz", "setting": "[5]", "result": "2,204,591 and 1,998,977"}, {"measurement": "PDI", "setting": "[5]", "result": "3.66 and 3.27"}, {"measurement": "Mn", "setting": "[6]", "result": "97,418 and 70,184 and 116,079"}, {"measurement": "Mw", "setting": "[6]", "result": "211,821 and 182,436 and 245,630"}, {"measurement": "Mz", "setting": "[6]", "result": "590,904 and 640,309 and 691,819"}, {"measurement": "PDI", "setting": "[6]", "result": "2.17 and 2.60 and 2.12"}, {"measurement": "Mn", "setting": "[7]", "result": "251,087 and 247,428 and 294,324"}, {"measurement": "Mw", "setting": "[7]", "result": "611,739 and 605,320 and 723,438"}, {"measurement": "Mz", "setting": "[7]", "result": "1,641,465 and 1,654,930 and 2,228,894"}, {"measurement": "PDI", "setting": "[7]", "result": "2.44 and 2.45 and 2.46"}, {"measurement": "Mn", "setting": "[8]", "result": "136,672 and 115,932 and 136,724"}, {"measurement": "Mw", "setting": "[8]", "result": "263,279 and 217,696 and 285,817"}, {"measurement": "Mz", "setting": "[8]", "result": "693,703 and 504,146 and 859,182"}, {"measurement": "PDI", "setting": "[8]", "result": "1.93 and 1.88 and 2.09"}]}
